Laboratory results as given in patent US20090196930A1, “AEROSOLIZED NITRITE AND NITRIC OXIDE -DONATING COMPOUNDS AND USES THEREOF” (Aires Pharmaceuticals, Inc., priority 2007, published 2009).
Where two headings read alike, the source gives them in different places.

Conditions: for VMD: n = 6, mean ± sd
Experimental: It was evaluated in tidal breathing mode (TBM) only.
The output characteristics of the three nebulizers (one of each type) were measured to determine the particle size distribution, inspired dose, residual dose, nebulizer output and duration of nebulization. The nebulizer efficiency, defined as the inhaled fine particle dose as a percent of the total loaded dose, was also determined. Each nebulizer was studied in duplicate, for a total of 6 measures per device type.
Particle Sizing. Nebulizers were weighed dry, full, and at the end of each study to determine gravimetric output and residual volume. Nebulizers were connected to the inhalation cell of the Insitec Laser (Malvern Instruments Ltd, Malvern, Worcestershire, UK) using a flexible airtight connector. The nebulizer and inhalation cell were oriented in a horizontal position. The output end of the inhalation cell was connected to a vacuum generator providing a continuous flow of 20 LPM across the laser beam. For measurements made with the I-neb, the output end of the inhalation cell was connected to a breath simulator, which permitted cyclic particle size measurements using the following breathing pattern: Rate=15 bpm, Volume=500 mL, I.T=2.0 seconds. This is the breathing pattern used for the output studies as well.
Each study was timed from the beginning of nebulization and run for a total of 2 minutes. During the first minute, no measurements were made to allow for equilibration of the solution. Particle sizing was begun and analyzed continuously for the duration of the 2nd minute. All data points were averaged for each measure.
1. VMD: Volume Median Diameter
2. GSD: Geometric Standard Deviation
3. %<3p: The percent of particles <3 microns
4. %<5p: The percent of particles <5 microns
5. Duration: Two minute total cycle time

Structure (SMILES): O=NO [sodium nitrite]
- GSD (Aeroneb Go): 2.1 ± 0.1
- VMD (Aeroneb Go): 4.6 ± 0.1
- GSD (I-neb): 1.8 ± 0.1
- VMD (I-neb): 4.8 ± 0.5
- GSD (PARI STAR): 2.8 ± 0.1
- VMD (PARI STAR): 1.7 ± 0.1
